The numbers were not newly measured in patent US6569857B1, “Dietary supplement” (Drugtech Corporation, priority 1999, dated 2003), which cites them from elsewhere.

The subject of data set [1] is spermatozoal zona binding. The following applies: oral dosing over a three month period, male infertility.
The test system of data set [2] is malondialdehyde concentrations. The following applies: oral vitamin E, male infertility patients; high levels are indicia of decreased sperm motility.

As for vitamin E, the “increase in spermatozoal zona binding” value in data set [1] is recorded as 50%. Also, the malondialdehyde concentrations result in data set [2] was “significantly decreased”.
